Experimental data: patent US6475985B1, “Nucleosides with antiviral and anticancer activity” (priority 1998, dated 2002)
Read-outs that look alike come from different tables or passages of the source. Blank lines part the entries; values can stand above or below the compound they belong to.

Key:
HIV-1 = assay: Test A: antiviral activity against HIV-1 isolates and laboratory strain in peripheral blood lymphocytes; format: cell-based; settings: Human immunodeficiency virus 1, Lymphocyte, read-out: Mean IC50 in PBLs
Procedure: (§1) The antiviral activity of representative compounds of the invention was determined with matched HIV-1 isolates and a laboratory HIV-1 strain as previously described (D. L. Mayers et al., Proc. Natl. Acad. Sci., USA 1995, 92, 215-219; and C. R. Wagner et al., Bioorganic and Medicinal Chemistry Letters, 1995, 5, 1819-1824).

PBMCs = settings: human
Procedure: as §1

[1] = Test F: stability in human plasma; format: in vitro ADME; settings: 37 C
[2] = test system: MCF-7 breast cancer cells; assay: Test G: activity against MCF-7 breast cancer cells; format: cell-based
Procedure: (§2) The activity of representative compounds of formula VII against MCF-7 breast cancer cells and CEM T-cell leukemia cells were determined using a procedure similar to that described by C. R. Wagner, et al. Cancer Research, 1997, 57, 2341-2345.

[3] = test system: CEM T-cell leukemia cells; assay: Test G: activity against CEM T-cell leukemia cells; format: cell-based
Procedure: as §2

in vitro = settings: cell media

SMILES: Nc1nccc2c1ncn2[C@@H]1O[C@H](CO)[C@@H](O)[C@H]1O [DZA, 3-deaza adenosine, reference compound]
IC50 (HIV-1; HIV-1 isolate A012 post-AZT): 165 nM
IC50 (HIV-1; HIV-1 isolate A012 pre-AZT): 144 nM
CC80 (PBMCs): 1000 nM

half-life [1]: 0.0833 to 0.167 h
half-life (in vitro): > 48 h
SMILES: O=c1[nH]c(=O)n([C@H]2C[C@H](O)[C@@H](CO)O2)cc1F [FUdR, 5-fluorodeoxyuridine, reference compound]
CC50 ([2]; Homo sapiens, MCF7): 11000 nM
CC50 ([3]; T-cell): 1 nM

SMILES: COC(=O)[C@H](Cc1c[nH]c2ccccc12)NP(=O)(O)OC[C@H]1O[C@@H](n2cc(F)c(=O)[nH]c2=O)C[C@@H]1O [Compound 37, 5-fluoro-2′deoxy-5′-uridyl N-((L)-1-carbomethoxy-2-indol-3-ylethyl)phosphoramidate]
CC50 [2]: 25 nM
CC50 [3]: 320 nM
Half-life Cell Media 37 C: >48 h
